Where “and” joins values, the source holds several entries; their conditions need not be identical. Equal entries are not always repeated. Square brackets hold non-standard residues; d marks the D form. Peptide text beside a SMILES is read from it. Cha = N[C@@H](CC1CCCCC1)C(=O)O; dCha = N[C@H](CC1CCCCC1)C(=O)O
What was measured:
C5a1 [1] = biological target: T1, C5a1 (Homo sapiens, UniProt P21730); assay: Total C5a1 loading control (np-C5a1 / anti-HA); assay type: cell-based
T1 construct: host or cells: Control-HEK293, ΔGRK2/3-HEK293, ΔGRK5/6-HEK293, stably expressing
T1 sequence (P21730 1-350): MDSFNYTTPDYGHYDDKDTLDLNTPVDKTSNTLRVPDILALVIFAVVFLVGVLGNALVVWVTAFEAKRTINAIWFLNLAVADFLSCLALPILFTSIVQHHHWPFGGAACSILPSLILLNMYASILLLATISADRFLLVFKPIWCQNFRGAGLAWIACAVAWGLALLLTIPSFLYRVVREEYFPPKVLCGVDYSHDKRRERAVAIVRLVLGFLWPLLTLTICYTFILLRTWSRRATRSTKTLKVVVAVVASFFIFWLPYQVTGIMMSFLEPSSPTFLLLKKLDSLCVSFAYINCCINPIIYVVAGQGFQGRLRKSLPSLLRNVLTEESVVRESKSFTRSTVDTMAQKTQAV

C5a1 [2] = biological target: T1, C5a1; assay: pT324/pS327-C5a1 7TM phosphorylation assay; assay type: cell-based; settings: for pT324/pS327 phosphorylation, normalized / pT324/pS327-C5aR1 Phosphorylation Assay, raw signal: Control-C5aR1-HEK293
[3] = ΔGRK2/3-C5aR1-HEK293, C028 10 µM (concentration series)

SMILES: N=C(N)NCCC[C@@H](NC(=O)[C@H](CC1CCCCC1)NC(=O)[C@@H](CC1CCCCC1)NC(=O)[C@@H]1CCCN1C(=O)[C@H](CCCCN)NC(=O)[C@@H](N)Cc1ccccc1)C(=O)O [C028, FKP-(D-Cha)-Cha-r] (H-FKP[dCha][Cha][dR]-OH)
- np signal, raw (C5a1 [1]; C028 0.01 µM, Control-C5aR1-HEK293): 1.7187 and 1.7849 and 1.2842 and 1.2491 and 1.8947
- np signal, raw (C5a1 [1]; C028 0.01 µM, ΔGRK2/3-C5aR1-HEK293): 1.3719 and 1.658 and 1.494 and 1.3769 and 1.8182
- np signal, raw (C5a1 [1]; C028 0.1 µM, Control-C5aR1-HEK293): 1.8405 and 1.7894 and 1.13 and 1.0755 and 1.6047
- np signal, raw (C5a1 [1]; C028 0.1 µM, ΔGRK2/3-C5aR1-HEK293): 1.6138 and 1.8688 and 1.3994 and 1.4066 and 1.6881
- np signal, raw (C5a1 [1]; C028 0.1 µM, ΔGRK5/6-C5aR1-HEK293): 1.983 and 1.7745 and 1.5114 and 1.8261 and 1.6189
- np signal, raw (C5a1 [1]; C028 0.3 µM, ΔGRK5/6-C5aR1-HEK293): 1.6298 and 1.4921 and 1.6333 and 1.6817 and 1.6758
- np signal, raw (C5a1 [1]; C028 1 µM, ΔGRK2/3-C5aR1-HEK293): 1.3996 and 1.4952 and 2.1996 and 1.4182 and 2.2245
- np signal, raw (C5a1 [1]; C028 1 µM, ΔGRK5/6-C5aR1-HEK293): 1.9501 and 1.5997 and 1.4175 and 1.1243 and 1.5682
- np signal, raw (C5a1 [1]; C028 3 µM, Control-C5aR1-HEK293): 1.9121 and 1.6861 and 1.569 and 1.3939 and 2.1397
- np signal, raw (C5a1 [1]; C028 3 µM, ΔGRK2/3-C5aR1-HEK293): 1.5651 and 1.596 and 2.1319 and 1.2489 and 1.5422
- np signal, raw (C5a1 [1]; C028 3 µM, ΔGRK5/6-C5aR1-HEK293): 1.6842 and 1.511 and 1.6612 and 1.9363 and 1.5067
- np signal, raw (C5a1 [1]; C028 10 µM, Control-C5aR1-HEK293, concentration series): 1.6592 and 1.6457 and 1.7245 and 1.2748 and 1.696
- np signal, raw (C5a1 [1]; C028 10 µM, Control-C5aR1-HEK293, first 0/10 µM pair): 1.6592 and 1.6457 and 1.3473 and 1.1686 and 1.879
- np signal, raw (C5a1 [1]; C028 10 µM, Control-C5aR1-HEK293, last 0/10 µM pair of Control block): 1.9885 and 1.4944 and 1.4087 and 1.155 and 1.5321
- np signal, raw (C5a1 [1]; C028 10 µM, Control-C5aR1-HEK293 beside ΔGRK2/3 block): 2.0332 and 1.1801 and 1.5046 and 1.4934 and 1.6943
- np signal, raw (C5a1 [1]; C028 10 µM, Control-C5aR1-HEK293 beside ΔGRK5/6 block): 1.9038 and 2.0072 and 1.4662 and 1.7694 and 1.271
- np signal, raw (C5a1 [1]; C028 10 µM, ΔGRK2/3-C5aR1-HEK293, concentration series): 1.5246 and 1.7106 and 1.3042 and 1.3389 and 1.7008
- np signal, raw (C5a1 [1]; C028 10 µM, ΔGRK2/3-C5aR1-HEK293, first 0/10 µM pair): 1.2045 and 1.6486 and 1.422 and 1.3225 and 1.7342
- np signal, raw (C5a1 [1]; C028 10 µM, ΔGRK5/6-C5aR1-HEK293, concentration series): 2.2585 and 1.8872 and 1.4472 and 1.4134 and 1.6269
- np signal, raw (C5a1 [1]; C028 10 µM, ΔGRK5/6-C5aR1-HEK293, first 0/10 µM pair): 2.1115 and 2.0551 and 1.5281 and 1.3721 and 1.3579
- np (raw signal) (C5a1 [1]; Control-C5aR1-HEK293, C028 0.01 µM, concentration series): 1.9803 and 1.5907 and 1.3538 and 1.2438 and 1.436 and 1.5903 and 1.7448 and 1.269
- np (raw signal) (C5a1 [1]; Control-C5aR1-HEK293, C028 0.3 µM, concentration series): 1.588 and 1.7265 and 1.5961 and 0.9789 and 1.4851 and 1.7215 and 1.957 and 1.5097
- np (total C5aR1), raw signal (C5a1 [1]; Control-C5aR1-HEK293, C028 0.01 µM): 1.3949 and 1.3266 and 1.5751 and 1.603 and 1.9857 and 2.1902
- np (total C5aR1), raw signal (C5a1 [1]; Control-C5aR1-HEK293, C028 0.1 µM): 1.088 and 1.5141 and 1.6432 and 1.3119 and 2.129 and 1.8032
- np (total C5aR1), raw signal (C5a1 [1]; Control-C5aR1-HEK293, C028 0.3 µM): 1.3568 and 1.8238 and 1.5485 and 1.2855 and 1.9306 and 1.5751
- np (total C5aR1), raw signal (C5a1 [1]; Control-C5aR1-HEK293, C028 1 µM): 1.4754 and 1.6232 and 1.785 and 1.3295 and 1.6944 and 2.063
- np (total C5aR1), raw signal (C5a1 [1]; Control-C5aR1-HEK293, C028 3 µM): 1.2425 and 1.4862 and 1.9242 and 1.5919 and 2.0564 and 1.6025
- np (total C5aR1), raw signal (C5a1 [1]; Control-C5aR1-HEK293 beside ΔGRK5/6 series, C028 10 µM): 2.3386 and 2.3729 and 1.6554 and 1.7709 and 1.3577 and 1.3562 and 1.5255
- np (raw signal) (C5a1 [1]; Control-C5aR1-HEK293 run beside the ΔGRK2/3 block, C028 10 µM): 1.8085 and 2.0631 and 1.4603 and 1.3915 and 1.4955 and 1.1807
- np (raw signal) (C5a1 [1]; Control-C5aR1-HEK293 run beside the ΔGRK5/6 block, C028 10 µM): 1.9033 and 1.7695 and 1.3647 and 1.1555 and 2.1969 and 1.68 and 1.7195 and 1.5597
- np (raw signal) (C5a1 [1]; ΔGRK2/3-C5aR1-HEK293, C028 0.01 µM, concentration series): 1.9037 and 1.8736 and 1.6092 and 1.5411 and 1.8666 and 1.9049 and 1.8208 and 1.3708
- np (raw signal) (C5a1 [1]; ΔGRK2/3-C5aR1-HEK293, C028 0.1 µM, concentration series): 1.8343 and 1.6381 and 1.9187 and 1.6055 and 2.1604 and 1.5161 and 1.9037 and 1.8736
- np (raw signal) (C5a1 [1]; ΔGRK2/3-C5aR1-HEK293, C028 0.3 µM, concentration series): 1.6659 and 1.792 and 1.7372 and 1.7036 and 2.059 and 1.9288 and 1.8343 and 1.6381
- np (raw signal) (C5a1 [1]; ΔGRK2/3-C5aR1-HEK293, C028 1 µM, concentration series): 1.7539 and 1.6924 and 1.7772 and 1.4498 and 2.0307 and 1.5417 and 1.6659 and 1.792
- np (raw signal) (C5a1 [1]; ΔGRK2/3-C5aR1-HEK293, C028 3 µM, concentration series): 1.6846 and 1.3473 and 1.4287 and 1.3661 and 2.0103 and 1.5757 and 1.7539 and 1.6924
- np (total C5aR1), raw signal (C5a1 [1]; ΔGRK2/3-C5aR1-HEK293, C028 0.01 µM): 1.9989 and 2.1791 and 2.1472 and 1.695 and 1.8681 and 1.8947 and 1.79
- np (total C5aR1), raw signal (C5a1 [1]; ΔGRK2/3-C5aR1-HEK293, C028 0.1 µM): 2.1466 and 2.0776 and 2.1938 and 2.0797 and 1.633 and 1.3767 and 1.2578
- np (total C5aR1), raw signal (C5a1 [1]; ΔGRK2/3-C5aR1-HEK293, C028 0.3 µM): 1.9738 and 1.8316 and 2.0611 and 2.0567 and 1.8444 and 1.4691 and 1.6375
- np (total C5aR1), raw signal (C5a1 [1]; ΔGRK2/3-C5aR1-HEK293, C028 1 µM): 1.8294 and 2.1206 and 2.1815 and 1.9867 and 1.4524 and 1.8069 and 1.3881
- np (total C5aR1), raw signal (C5a1 [1]; ΔGRK2/3-C5aR1-HEK293, C028 3 µM): 1.9342 and 1.5491 and 2.0615 and 1.8761 and 1.3783 and 1.8045 and 1.3094
- np (total C5aR1), raw signal (C5a1 [1]; ΔGRK2/3-C5aR1-HEK293, C028 10 µM (0/10 µM pair)): 1.6776 and 1.597 and 2.0065 and 1.9839 and 1.7864 and 1.8111 and 1.5147
- np (raw signal) (C5a1 [1]; [3]): 1.6617 and 1.8239 and 1.3136 and 1.3724 and 1.8559 and 1.6
- np (total C5aR1), raw signal (C5a1 [1]; [3]): 2.0002 and 1.769 and 2.052 and 2.2047 and 1.6138 and 1.7275 and 1.9566
- np (raw signal) (C5a1 [1]; ΔGRK5/6-C5aR1-HEK293, C028 0.3 µM, concentration series): 1.7318 and 1.8541 and 1.5067 and 1.2715 and 1.8493 and 2.0046 and 1.7672 and 1.7676
- np (raw signal) (C5a1 [1]; ΔGRK5/6-C5aR1-HEK293, C028 1 µM, concentration series): 2.0252 and 1.7968 and 1.4934 and 1.2437 and 2.0647 and 1.7841 and 1.4601 and 1.5886
- np (raw signal) (C5a1 [1]; ΔGRK5/6-C5aR1-HEK293, C028 10 µM, first 0/10 µM column pair): 1.7829 and 1.9246 and 1.5744 and 1.3841 and 1.8642 and 1.9552 and 1.5996 and 1.6914
- np (total C5aR1), raw signal (C5a1 [1]; ΔGRK5/6-C5aR1-HEK293, C028 10 µM (0/10 µM pair)): 1.7545 and 1.6551 and 1.4386 and 1.778 and 1.4304 and 1.6743 and 2.0075
- np (total C5aR1), raw signal (C5a1 [1]; ΔGRK5/6-C5aR1-HEK293, C028 10 µM (concentration series)): 1.8811 and 1.8348 and 1.6561 and 1.4006 and 1.0888 and 1.1737 and 1.1522
- OD405 max pT324/pS327-C5a1 (C5a1 [2]): 1.26
- OD405 min pT324/pS327-C5a1 (C5a1 [2]): 0.01
- pT324/pS327 phosphorylation, normalized (C5a1 [2]; C028 0.01 µM): 6.54% and 2.09% and 2.38% and -0.26% and 4.73% and 4.23% and 0.13% and 0.29%
- pT324/pS327-C5aR1 Phosphorylation Assay, raw signal (C5a1 [2]; C028 0.1 µM): 0.2603 and 0.2849 and 0.4452 and 0.4009 and 0.2355 and 0.392 and 0.2309 and 0.3621
- pT324/pS327-C5aR1 Phosphorylation Assay, raw signal (C5a1 [2]; C028 3 µM): 0.8349 and 0.7369 and 1.3757 and 1.2873 and 1.162 and 1.2785 and 0.8805 and 0.8562
- pT324/pS327 phosphorylation, normalized (C5a1 [2]; C028 3 µM): 120.88% and 95.08% and 81.14% and 86.44% and 112.69% and 137.00% and 71.21% and 88.89%
- pT324/pS327 phosphorylation, normalized (C5a1 [2]; C028 10 µM (concentration series)): 119.78% and 104.86% and 86.39% and 115.09% and 117.11% and 104.93% and 106.33% and 104.22%
